Test results taken from article PMC9786614, “Nerve Targeting via Myelin Protein Zero and the Impact of Dimerization on Binding Affinity” (Molecules, 2022).
“Also recorded” adds a separate entry of the source. Like-named read-outs stand apart in the source and are kept apart here. Starred links: 1 amine or outer side, 2 acyl side, 3 side chain; linkers in the order of their positions; H or OH if unused. Positions of bridges follow the written chain, without caps; N, C: chain ends. Residues, ends and D or L forms follow the SMILES beside them. Chains are numbered I, II in the order given. *: point of attachment. X1 = CC1(C)C(/C=C/C=C/C=C2/N(CCCCCC(=O)NCCN3C(=O)CC([*:1])C3=O)c3ccc(S(=O)(=O)O)cc3C2(C)C)=[N+](CCCCCC(=O)NCCN2C(=O)CC([*:2])C2=O)c2ccc(S(=O)(=O)[O-])cc21; X2 = CC1(C)C(=C/C=C/C=C/C2=[N+](CCCCS(=O)(=O)O)c3ccc(S(=O)(=O)[O-])cc3C2(C)C)N(CCCCCC(=O)NCCN2C(=O)CC(*)C2=O)c2ccc(S(=O)(=O)O)cc21

Legend:
RT4-D12 Schwannoma cells [1] = experiment: Fluorescence confocal microscopy of P0 staining; type: cell-based; details: 1 h at 4 °C
Procedure: RT4-D12 Schwannoma cells were trypsinized and seeded onto 35 mm culture dishes that contained a glass insert (MatTek co, Emu Plains, New South Wales, Australia) two days prior to the imaging experiment. Then, 0.5–1000 nM Cy5-P0_101–125 or Cy5-(P0_101–125)2 was added one hour prior to imaging (incubation at 4 °C; n = 3 per tracer). Peptide solutions were sonicated for 20 s prior to addition to prevent aggregation of the peptide in solution. Lysotracker (lysotracker green; 2 µL/mL DND-26, Thermo Fisher, Waltham, MA, USA) and Hoechst (33,342, 1 mg/mL, 1:500, Thermo Fisher) were added to the to provide staining of lysosomes and the nucleus, respectively.
Images were acquired following Cy5 excitation at 633 nm. Emission was collected between 650–700 nm. For visualization of the lysosomes in the cells, a 488 nm laser was used for excitation, while emission was collected between 500–550 nm. Hoechst was excited at 405 nm, and emission was collected between 410–460 nm. Fluorescence confocal images were acquired using a Leica SP8 WL at sequential settings and 63× magnification. Image analysis was performed using Leica Confocal Software (Leica Microsystems). Semi-quantitative analysis of the Cy5 signal intensity was performed using the quantification tool in Fiji software according to previously described methods.

[2] = not given; remark: listed apart in the source
[3] = not given; remark: listed apart in the source
[4] = not given; remark: listed apart in the source
[5] = Photostability (photobleaching); type: physicochemical; details: illumination in 5 min cycles, 30 min in total, Storz D-Light P system at 50 mm, fluorescence read-out
Procedure: (§1) The molar extinction coefficient (ε), quantum yield (QY), brightness, lipophilicity, serum protein binding, photo- and chemical stability, and stacking behavior were determined according to a slight modification of the protocol put forward by Hensbergen et al.. Sulfonate-(SO3)Cy5(SO3)-COOH [27] was measured and used as a control for QY.
For photostability measurements, the cuvettes were sealed and illuminated for 5 min (30 min in total) by a modified Storz D-Light P fluorescence imaging system at a distance of 50 mm in a dark environment. After each illumination cycle, the fluorescence intensity was determined.

[6] = Stacking behavior (absorbance spectra, dilution series); type: physicochemical; details: absorbance spectra in water, dilution series 8 μM to 0.5 μM, normalized
Procedure: as §1
To determine the stacking behavior of the mono- and bi-labeled compounds and their corresponding dyes, a dilution series of Cy5-(P0_101–125)2 and Cy5-P0_101–125 were made, consisting of the dye concentrations ranging from 8 μM to 0.5 μM.
Normalization of the data set for stacking behavior was performed using Equation (1):(1) x(normalized)=(x−xmin)/range of x where range of x= xmax−xmin .

myelin protein zero (P0) = target: T1, myelin protein zero (P0) (Rattus norvegicus, UniProt P06907); experiment: Saturation binding by flow cytometry on P0-expressing Schwannoma cells; details: for Nonspecific binding: saturation binding fit, RT4-D12 cells; for Nonspecific binding / Kd: flow cytometry; for Kd: saturation binding, RT4-D12 Schwannoma cells, 0–2000 nM tracer in 0.1% BSA in PBS, 1 h at 4 °C, triplicate, One site—Total fit
T1 construct: RT4-D12 Schwannoma cells were selected for in vitro experiments based on their origin and their specific P0-expressing properties; endogenous in cells; host or cells: RT4-D12 Schwannoma cells
T1 sequence (P06907 30-248): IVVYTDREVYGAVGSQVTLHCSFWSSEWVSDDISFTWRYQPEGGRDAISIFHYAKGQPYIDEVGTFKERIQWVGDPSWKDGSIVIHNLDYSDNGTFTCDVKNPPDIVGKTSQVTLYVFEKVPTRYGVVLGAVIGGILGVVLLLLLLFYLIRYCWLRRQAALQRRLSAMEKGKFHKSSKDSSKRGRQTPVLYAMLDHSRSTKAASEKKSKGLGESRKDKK
Procedure: RT4-D12 Schwannoma cells were selected for in vitro experiments based on their origin and their specific P0-expressing properties.
All chemicals were received from Actu-All Chemical (Oss, The Netherlands), Sigma Aldrich (St. Louis, MO, USA), Tokyo Chemical Industry (Tokyo, Japan), Biosolve BV (Valkenswaard, The Netherlands), VWR Chemicals (Solon, OH, USA) and used without further purification. DMF and DMSO were dried over four Å molecular sieves at least for 24 h prior to use. Preparative high-pressure liquid chromatography (prep-HPLC) was performed on a Waters HPLC system (Waters Chromatography B.V., Etten-Leur, The Netherlands) using a 2545 quaternary gradient module pump and a 2489 UV detector. Dr. Maisch ReproSil-Pur 120 C18-AQ 10 μM (250 mm × 20 mm) column (Dr. Maisch HPLC GmbH, Ammerbuch-Entringen, Germany) was applied operating flow rate of 12 mL/min. HPLC analysis was carried out on Waters Alliance 2690 using a Waters symmetry C18 column (2.1 × 150 mm) with a gradient of 0.1% TFA in H2O/MeCN 95:5 to 0.1% TFA in H2O/MeCN 5:95 in 17 min (0.3 mL/min). Mass spectrometry was performed on a Microflex LT/SH MALDI-TOF mass spectrometer (Bruker, Billerica, MA, USA). Lyophilization was performed with a VaCo 2-II lyophilizer (Zirbus technology GmbH, Bad Grund (Harz), Germany). Absorption spectrometry was performed using a UV1280 UV–vis spectrometer (Shimadzu, Kyoto, Japan), and fluorescence spectrometry was performed using an LS55 (Perkin Elmer, Waltham, MA, USA). The fluorescence spectra at different temperatures were measured on an Agilent Cary Eclipse (Agilent Cary Eclipse, Santa Clara, CA, USA). NMR spectra were measured on a Bruker Avance 300 (Bruker, Billerica, MA, USA) operating at 300 MHz for 1 H and 75.00 MHz for 13 C, using the residual solvents (CDCl3 and DMSO-d6) as internal references, and on a Bruker Advance III spectrometer operating at 600 MHz for 1H and equipped with a 2.5 mm PH SEI probe (Bruker, Billerica, MA, USA). For photostability, a prototype D-Light P surgical laparoscope (KARL STORZ, Tuttlingen, Germany) was used. Fluorescence confocal imaging was performed using a SP8 WLL confocal microscope (Leica Microsystems, Wetzlar, Germany). Obtained images were analyzed using Leica Confocal Software (Leica Microsystems). Mean fluorescence intensity values per sample were measured using a LSRII flow cytometer (BD Biosciences, Franklin Lakes, NJ, USA) with APC-A settings (635 nm laser and 750 nm long-pass filter). The binding constant (KD) of the normalized geometric means were fitted with equations in the Prism 5 software (GraphPad, San Diego, CA, USA). Statistical evaluation (Student’s t-test) for all properties was performed in the Prism 5 software. […]
Flow cytometric analysis was performed using RT4-D12 Schwannoma cells after incubation with either Cy5-P0_101–125 or Cy5-(P0_101–125)2. […] Cells were gated on Forward Scatter and Side Scatter, and a minimum of 10,000 viable cells were analyzed per sample. […]
(§2) For evaluation of the differences in signal intensity per concentration between Cy5-P0_101–125 and Cy5-(P0_101–125)2 (5–1000 nM), the mean signal intensity of Cy5-P0_101–125 at 1000nM was set at 100%, and intensities measured at other tracer concentrations or for Cy5-(P0_101–125)2 were calculated as % increase or decrease from this point. The KD values of the evaluated peptides were calculated using the “Binding-Saturation, One site—Total” nonlinear regression equation, as described previously.

serum protein = experiment: Serum protein binding; type: in vitro ADME; details: serum; protocol modified from Hensbergen et al. [34]; mean ± spread
Procedure: as §1

[7] = not given; remark: listed apart in the source
Lipophilicity logP(o/w) = type: physicochemical; details: octanol/water; protocol modified from Hensbergen et al. [34]; mean ± spread
Procedure: as §1

[8] = Stability towards glutathione; type: physicochemical
Procedure: For the stability towards glutathione, which is used as a measure of stability towards thiols and amines in vivo, 125 µL of a 2 mM solution of the compound in (0.1 M HEPES pH 7.4, pre-sparged with N2) was added to 125 µL of a 4 mM solution of reduced glutathione in 0.1M HEPES pH 7.4 (pre-sparged with N2). The solutions were mixed and then placed in a sample manager. A sample was analyzed at 37 degrees over 6 h in total to determine the amount of compound relative to t = 0.

Serum protein binding = type: in vitro ADME; details: protocol modified from Hensbergen et al. [34]; mean ± spread
Procedure: as §1

RT4-D12 Schwannoma cells [9] = experiment: Flow cytometry quantification of fluorescence signal intensity per tracer concentration; type: cell-based
Procedure: Flow cytometric analysis was performed using RT4-D12 Schwannoma cells after incubation with either Cy5-P0_101–125 or Cy5-(P0_101–125)2. For saturation binding experiments, Cy5-labelled peptides were added to the cell samples in a range of 0–2000 nM in 50 µL of 0.1% bovine serum albumin (BSA) in PBS, as previously described. After 1 h of incubation at 4 °C, the cells were washed two times with 300 µL of 0.1% BSA in PBS and re-suspended in 300 µL of 0.1% BSA. Cells were gated on Forward Scatter and Side Scatter, and a minimum of 10,000 viable cells were analyzed per sample. All experiments were performed in triplicate.
as §2

[10] = free dye; previously reported; ref Spa et al. [27]; cited from earlier work
From the text: Table 1 Chemo- and photophysical properties of mono-labeled Cy5-P0_101–125 and bi- labeled Cy5-(P0_101–125)2 and corresponding free cyanine dyes. | column: Sulfonate-(SO3)Cy5(SO3)-COOH *

| Molecule | loss of fluorescence intensity with temperature increase | P0-related staining at 100 nM tracer (RT4-D12 Schwannoma cells [1]) | stokes shift [2] | λEm in H2O/PBS [3] | Brightness in PBS [4] | Photobleaching, % [5] | Nonspecific binding (myelin protein zero (P0)) | Kd (myelin protein zero (P0)) | fraction unbound (serum protein) | λex in H2O/PBS [7] | other results |
| --- | --- | --- | --- | --- | --- | --- | --- | --- | --- | --- | --- |
| CC[C@H](C)[C@H](NC(=O)[C@H](CC(=O)O)NC(=O)[C@@H]1CCCN1C(=O)[C@@H]1CCCN1C(=O)[C@H](CC(N)=O)NC(=O)[C@H](CCCCN)NC(C)=O)C(=O)N[C@H](C(=O)NCC(=O)N[C@@H](CCCCN)C(=O)N[C@H](C(=O)N[C@@H](CO)C(=O)N[C@@H](CCC(N)=O)C(=O)N[C@H](C(=O)N[C@H](C(=O)N[C@@H](CC(C)C)C(=O)N[C@@H](Cc1ccc(O)cc1)C(=O)N[C@H](C(=O)N[C@@H](Cc1ccccc1)C(=O)N[C@@H](CCC(=O)O)C(=O)N[C@@H](CCCCN)C(=O)N[C@H](C(=O)N1CCC[C@H]1C(=O)N[C@H](C(=O)N[C@@H](CCCNC(=N)N)C(=O)N[C@@H](Cc1ccc(O)cc1)C(=O)N[C@@H](CSC1CC(=O)N(CCNC(=O)CCCCCN2C(=C/C=C/C=C/C3=[N+](CCCCS(=O)(=O)O)c4ccc(S(=O)(=O)[O-])cc4C3(C)C)C(C)(C)c3cc(S(=O)(=O)O)ccc32)C1=O)C(N)=O)[C@@H](C)O)C(C)C)C(C)C)[C@@H](C)O)C(C)C)[C@@H](C)O)C(C)C (stereo partly shown) [Cy5-P0_101–125] (Ac-KNPPDIVGKTSQVTLYVFEKVPTRYC(X2)-NH2) | 70% | Only a faint P0-related signal | 21 nm | 671 nm | 55.7 M⁻¹ cm⁻¹ | 94% | 0.020 | 0.105 µM | 0.11 | 650 nm | stacking behavior (dye stacking / aggregation) [6]: higher “shoulder peak”; also recorded: typical “stacking shoulder” appears only for a mono-labeled Cy5-P0_101–125 at higher concentration |
| COOH-(SO3)Cy5(SO3)-COOH [reference compound] | – | – | – | – | – | 95% | – | – | – | – | logP(o/w) (Lipophilicity logP(o/w)): −1.62 ± 0.01; Glutathione stability (at 6 h), % ([8]; 2 mM compound mixed 1:1 with 4 mM reduced glutathione, 0.1 M HEPES pH 7.4 (N2 sparged), 37 degrees, amount relative to t = 0): 95%; Serum protein binding, % (Serum protein binding): 70 ± 4% |
| I: Ac-KNPPDIVGKTSQVTLYVFEKVPTRYC-NH2 / II: Ac-KNPPDIVGKTSQVTLYVFEKVPTRYC-NH2 (linker I:26-II:26 via X1) [Cy5-(P0_101–125)2] | 65% | cells could be clearly discriminated | 17 nm | 671 nm | 49.2 M⁻¹ cm⁻¹ | 71% | 0.022 | 0.0703 µM | 0.37 | 654 nm | logP (Lipophilicity logP(o/w)): -0.57 ± 0.01; remaining at 6 h, 1 mM ([8]; HEPES buffer with reduced glutathione, 2 mM compound mixed 1:1 with 4 mM reduced glutathione, 0.1 M HEPES pH 7.4 (N2 sparged), 37 degrees, amount relative to t = 0): 96%; degradation in glutathione stability test ([8]; reduced glutathione, 0.1 M HEPES pH 7.4, 37 degrees, 6 h): 4%; fold increase in affinity compared to Cy5-P0_101–125 (myelin protein zero (P0); from KD values, p = 0.003): 1.5 fold; fold increase in staining efficiency compared to Cy5-P0_101–125 (RT4-D12 Schwannoma cells [9]; P0 expressing Schwannoma cells, equal staining at 4-fold lower concentration): ~4 fold; higher fluorescence signal intensity compared to Cy5-P0_101–125 at the same concentration, range (RT4-D12 Schwannoma cells [9]; flow cytometry, tracer 5–1000 nM, RT4-D12 cells): 34–59%; higher fluorescence signal intensity compared to Cy5-P0_101–125 at the same concentration, average (RT4-D12 Schwannoma cells [9]; flow cytometry, tracer 5–1000 nM, RT4-D12 cells, p < 0.00001): 44% |
| Sulfonate-(SO3)Cy5(SO3)-COOH | – | – | – | – | – | – | – | – | – | – | Glutathione stability (at 6 h), % [10]: 95%; Net charge [10]: −2; Photobleaching, % [10]: 93%; Serum protein binding, % [10]: 49 ± 8%; logP(o/w) [10]: −1.42 ± 0.00 |
